Blank lines part the entries; values can stand above or below the molecule they belong to.
Target: T1, Microsomal triglyceride transfer protein (MTP) from human small intestine microsome (Homo sapiens, UniProt P55157)
T1 construct: Human small intestine microsome was dialyzed against 10 mM phosphate buffer; tissue Tissue Transforming Technologies, Inc; host or cells: human small intestine microsome
Test: Inhibition test of interliposomal triglyceride (TG) transfer activity by MTP
Type: biochemical
Details: purified MTP from human small intestine microsome, 37° C., 1.5 hours
In short: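 DEAE-purified human small intestine MTP (50 μL of 20 μg/mL) incubated 1.5 hours at 37° C with ^14C-triolein donor and unlabelled acceptor SUV liposomes in pH 7.4 Tris buffer with 0.5% BSA. Donor removed on DEAE cellulose; acceptor radioactivity counted, blank-corrected against DMSO control, giving percent inhibition and IC50.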

T1 sequence (P55157 19-894): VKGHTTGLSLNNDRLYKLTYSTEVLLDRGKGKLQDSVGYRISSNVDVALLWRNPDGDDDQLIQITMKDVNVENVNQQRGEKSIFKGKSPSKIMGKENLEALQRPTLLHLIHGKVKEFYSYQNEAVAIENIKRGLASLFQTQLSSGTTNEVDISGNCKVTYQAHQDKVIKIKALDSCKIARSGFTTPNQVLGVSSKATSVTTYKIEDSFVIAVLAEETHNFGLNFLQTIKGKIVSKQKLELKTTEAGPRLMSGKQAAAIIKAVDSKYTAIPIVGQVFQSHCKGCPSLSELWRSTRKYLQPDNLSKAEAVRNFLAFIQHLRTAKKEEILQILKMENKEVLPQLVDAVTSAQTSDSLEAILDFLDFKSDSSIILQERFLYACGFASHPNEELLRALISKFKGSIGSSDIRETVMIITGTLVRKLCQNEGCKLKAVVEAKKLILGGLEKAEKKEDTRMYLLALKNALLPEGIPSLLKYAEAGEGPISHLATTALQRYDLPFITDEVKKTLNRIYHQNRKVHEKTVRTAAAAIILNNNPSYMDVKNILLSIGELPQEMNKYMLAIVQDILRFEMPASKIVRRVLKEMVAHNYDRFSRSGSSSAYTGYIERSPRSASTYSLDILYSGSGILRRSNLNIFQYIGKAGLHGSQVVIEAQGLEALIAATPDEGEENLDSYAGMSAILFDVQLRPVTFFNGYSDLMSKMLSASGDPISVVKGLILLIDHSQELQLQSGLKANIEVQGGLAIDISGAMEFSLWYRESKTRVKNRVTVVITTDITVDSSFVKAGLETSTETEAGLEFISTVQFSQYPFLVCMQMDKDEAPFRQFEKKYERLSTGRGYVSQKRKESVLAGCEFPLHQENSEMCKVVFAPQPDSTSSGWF
T1 sequence (P07237 18-508 partner): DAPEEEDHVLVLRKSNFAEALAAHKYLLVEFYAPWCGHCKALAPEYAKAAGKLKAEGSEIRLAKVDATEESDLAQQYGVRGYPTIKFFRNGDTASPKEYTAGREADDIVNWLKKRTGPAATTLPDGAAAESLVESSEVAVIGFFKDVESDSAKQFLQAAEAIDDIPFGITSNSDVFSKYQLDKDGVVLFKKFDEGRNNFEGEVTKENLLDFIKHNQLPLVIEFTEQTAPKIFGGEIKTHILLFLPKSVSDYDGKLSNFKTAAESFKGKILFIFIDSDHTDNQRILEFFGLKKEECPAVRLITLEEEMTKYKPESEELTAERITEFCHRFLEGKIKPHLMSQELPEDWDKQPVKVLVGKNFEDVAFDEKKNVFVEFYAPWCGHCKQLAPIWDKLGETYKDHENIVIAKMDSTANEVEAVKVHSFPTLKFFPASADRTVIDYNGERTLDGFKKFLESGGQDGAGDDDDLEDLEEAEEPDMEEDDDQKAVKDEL

Molecule: COC(=O)c1ccc(OC(=O)CCCc2ccc(NC(=O)c3ccc(C)nc3-c3ccc(C(F)(F)F)cc3)c(C(=O)N(C)C)c2)c(C)c1 [Compound 1-69, 4-[4-(3-dimethylcarbamoyl-4-{[6-methyl-2-(4-trifluoromethylphenyl)pyridine-3-carbonyl]amino}phenyl)butyryloxy]-3-methylbenzoic acid methyl ester]
IC50: 10 to 100 nM

Molecule: COC(=O)c1ccc(OC(=O)C2CCN(c3ccc(NC(=O)c4ccccc4-c4ccc(C(F)(F)F)cc4)c(C(=O)N(C)C)c3)CC2)cc1 [Compound 3-1, 1-{3-dimethylcarbamoyl-4-[(4′-trifluoromethylbiphenyl-2-carbonyl)amino]phenyl}piperidine-4-carboxylic acid 4-methoxycarbonylphenyl ester]
IC50: 10 to 100 nM

Molecule: COC(=O)c1ccc(OC(=O)CCc2ccc(NC(=O)c3ccccc3-c3ccc(C(F)(F)F)cc3)c(C(=O)N(C)C)c2)cc1 [Compound 1-27, 4-(3-{3-dimethylcarbamoyl-4-[(4′-trifluoromethylbiphenyl-2-carbonyl)amino]phenyl}propionyloxy)benzoic acid methyl ester]
IC50: 10 to 100 nM

Molecule: 3-chloro-4-[4-(3-dimethylcarbamoyl-4-{[6-methyl-2-(4-trifluoromethylphenyl)pyridine-3-carbonyl]amino}phenyl)butyryloxy]-5-methoxybenzoic acid methyl ester sulfonate [Compound 1-56]
IC50: < 10 nM

Molecule: CCOC(=O)c1cc(C)c(OC(=O)CCCc2ccc(NC(=O)c3ccc(C)nc3-c3ccc(C(F)(F)F)cc3)c(C(=O)N(C)C)c2)c(C(=O)OC)c1 [Compound 1-52, 4-[4-(3-dimethylcarbamoyl-4-{[6-methyl-2-(4-trifluoromethylphenyl)pyridine-3-carbonyl]amino}phenyl)butyryloxy]-5-methylisophthalic acid 1-ethyl ester 3-methyl ester]
IC50: < 10 nM

Molecule: CN(C)C(=O)c1cc(CCCC(=O)Oc2ccc(C(=O)OC3CCc4ccccc43)cc2)ccc1NC(=O)c1ccccc1-c1ccc(C(F)(F)F)cc1 (stereo not shown) [Compound 1-107, 4-[4-(3-dimethylcarbamoyl-4-{(4′-trifluoromethylbiphenyl-2-carbonyl)amino}phenyl)butyryloxy]benzoic acid indan-1-yl ester]
IC50: < 10 nM

Molecule: CN(C)C(=O)c1cc(CCCC(=O)Oc2ccc(C(=O)OCc3ccc(C(=O)OC(C)(C)C)cc3)cc2)ccc1NC(=O)c1ccccc1-c1ccc(C(F)(F)F)cc1 [Compound 1-103, 4-[4-(3-dimethylcarbamoyl-4-{(4′-trifluoromethylbiphenyl-2-carbonyl)amino}phenyl)butyryloxy]benzoic acid 4-(t-butoxycarbonyl)benzyl ester]
IC50: < 10 nM

Molecule: CN(C)C(=O)c1cc(CCCC(=O)Oc2ccc(C(=O)OCc3cccc(Cl)c3)cc2)ccc1NC(=O)c1ccccc1-c1ccc(C(F)(F)F)cc1 [Compound 1-87, 4-[4-(3-dimethylcarbamoyl-4-{(4′-trifluoromethylbiphenyl-2-carbonyl)amino}phenyl)butyryloxy]benzoic acid 3-chlorobenzyl ester]
IC50: < 10 nM

Molecule: Cc1cccc(COC(=O)c2ccc(OC(=O)CCCc3ccc(NC(=O)c4ccc(C)nc4-c4ccc(C(F)(F)F)cc4)c(C(=O)N(C)C)c3)cc2)n1 [Compound 1-100, 4-[4-(3-dimethylcarbamoyl-4-{[6-methyl-2-(4-trifluoromethylphenyl)pyridine-3-carbonyl]amino}phenyl)butyryloxy]benzoic acid 6-methylpyridin-2-ylmethyl ester]
IC50: < 10 nM

Molecule: COC(=O)c1ccc(OC(=O)CCCc2ccc(NC(=O)c3ccncc3-c3ccc(C(F)(F)F)cc3)c(C(=O)N(C)C)c2)cc1 [Compound 1-30, 4-[4-(3-dimethylcarbamoyl-4-{[3-(4-trifluoromethylphenyl)pyridine-4-carbonyl]amino}phenyl)butyryloxy]benzoic acid methyl ester]
IC50: 10 to 100 nM

Molecule: COC(=O)c1ccc(OC(=O)CCCc2ccc(NC(=O)c3ccccc3-c3ccc(C(F)(F)F)cc3)c(C(=O)N(C)C)c2)c(C(F)(F)F)c1 [Compound 1-20, 4-(4-{3-dimethylcarbamoyl-4-[(4′-trifluoromethylbiphenyl-2-carbonyl)amino]phenyl}butyryloxy)-3-trifluoromethylbenzoic acid methyl ester]
IC50: 10 to 100 nM

Molecule: COC(=O)c1ccc(OC(=O)CCCc2ccc(NC(=O)c3ccccc3-c3ccc(C(F)(F)F)cc3)c(C(=O)N(C)C)c2)c(Cl)c1 [Compound 1-11, 3-chloro-4-(4-{3-dimethylcarbamoyl-4-[(4′-trifluoromethylbiphenyl-2-carbonyl)amino]phenyl}butyryloxy)benzoic acid methyl ester]
IC50: < 10 nM

Molecule: CN(C)C(=O)c1cc(CCCC(=O)Oc2ccc(C#N)cc2)ccc1NC(=O)c1ccccc1-c1ccc(C(F)(F)F)cc1 [Compound 1-23, 4-{3-dimethylcarbamoyl-4-[(4′-trifluoromethylbiphenyl-2-carbonyl)amino]phenyl}butyric acid 4-cyanophenyl ester]
IC50: 10 to 100 nM

Molecule: CN(C)C(=O)c1cc(CCCC(=O)Oc2ccc(C(=O)OCc3ccccn3)cc2)ccc1NC(=O)c1ccccc1-c1ccc(C(F)(F)F)cc1 [Compound 1-82, 4-[4-(3-dimethylcarbamoyl-4-{(4′-trifluoromethylbiphenyl-2-carbonyl)amino}phenyl)butyryloxy]benzoic acid pyridin-2-ylmethyl ester]
IC50: < 10 nM

More lines, now with the values ahead:

IC50: < 10 nM
Molecule: COC(=O)c1ccc(OC(=O)CCCc2ccc(NC(=O)c3ccccc3-c3ccc(C(=O)OC)cc3)c(C(=O)N(C)C)c2)cc1 [Compound 4-3, 2′-{2-dimethylcarbamoyl-4-[3-(4-methoxycarbonylphenoxycarbonyl)propyl]phenyl-carbamoyl}biphenyl-4-carboxylic acid methyl ester]

IC50: < 10 nM
Molecule: COC(=O)c1ccc(OC(=O)CCCc2ccc(NC(=O)c3ccccc3-c3ccc(C(F)(F)F)cc3)c(C(=O)N3CCCC3)c2)cc1 [Compound 1-15, 4-(4-{3-(pyrrolidine-1-carbonyl)-4-[(4′-trifluoromethylbiphenyl-2-carbonyl)amino]phenyl}butyryloxy)benzoic acid methyl ester]

IC50: < 10 nM
Molecule: COc1cc(C(=O)OC(C)C)cc(OC)c1OC(=O)CCCc1ccc(NC(=O)c2ccc(C)nc2-c2ccc(C(F)(F)F)cc2)c(C(=O)N(C)C)c1 [Compound 1-44, 4-[4-(3-dimethylcarbamoyl-4-{[6-methyl-2-(4-trifluoromethylphenyl)pyridine-3-carbonyl]amino}phenyl)butyryloxy]-3,5-dimethoxybenzoic acid isopropyl ester]

IC50: < 10 nM
Molecule: COc1cc(C(=O)OC(C)C)cc(Cl)c1OC(=O)CCCc1ccc(NC(=O)c2ccc(C)nc2-c2ccc(C(F)(F)F)cc2)c(C(=O)N(C)C)c1 [Compound 1-37, 3-chloro-4-[4-(3-dimethylcarbamoyl-4-{[6-methyl-2-(4-trifluoromethylphenyl)pyridine-3-carbonyl]amino}phenyl)butyryloxy]-5-methoxybenzoic acid isopropyl ester]

IC50: < 10 nM
Molecule: COC(=O)c1cc(C)c(OC(=O)CCCc2ccc(NC(=O)c3ccc(C)nc3-c3ccc(C(F)(F)F)cc3)c(C(=O)N(C)C)c2)c(C(F)(F)F)c1 [Compound 1-45, 4-[4-(3-dimethylcarbamoyl-4-{[6-methyl-2-(4-trifluoromethylphenyl)pyridine-3-carbonyl]amino}phenyl)butyryloxy]-3-methyl-5-trifluoromethylbenzoic acid methyl ester]

IC50: < 10 nM
Molecule: CN(C)C(=O)c1cc(CCCC(=O)Oc2ccc(C(=O)OCCCO)cc2)ccc1NC(=O)c1ccccc1-c1ccc(C(F)(F)F)cc1 [Compound 1-92, 4-[4-(3-dimethylcarbamoyl-4-{(4′-trifluoromethylbiphenyl-2-carbonyl)amino}phenyl)butyryloxy]benzoic acid 3-hydroxypropyl ester]

IC50: < 10 nM
Molecule: COC(=O)c1ccc(-c2nc(C)ccc2C(=O)Nc2ccc(CCCC(=O)Oc3c(C)cc(C(=O)OC)cc3Cl)cc2C(=O)N(C)C)cc1 [Compound 4-1, 3-chloro-4-[4-(3-dimethylcarbamoyl-4-{[2-(4-methoxycarbonylphenyl)-6-methylpyridine-3-carbonyl]amino}phenyl)butyryloxy]-5-methylbenzoic acid methyl ester]

IC50: < 10 nM
Molecule: CCc1cc(C(=O)OC)ccc1OC(=O)CCCc1ccc(NC(=O)c2ccccc2-c2ccc(C(F)(F)F)cc2)c(C(=O)N(C)C)c1 [Compound 1-67, 4-[4-(3-dimethylcarbamoyl-4-{(4′-trifluoromethylbiphenyl-2-carbonyl)amino}phenyl)butyryloxy]-3-ethylbenzoic acid methyl ester]

IC50: < 10 nM
Molecule: CCOc1cc(C(=O)OC)cc(Cl)c1OC(=O)CCCc1ccc(NC(=O)c2ccc(C)nc2-c2ccc(C(F)(F)F)cc2)c(C(=O)N(C)C)c1 [Compound 1-40, 3-chloro-4-[4-(3-dimethylcarbamoyl-4-{[6-methyl-2-(4-trifluoromethylphenyl)pyridine-3-carbonyl]amino}phenyl)butyryloxy]-5-ethoxybenzoic acid methyl ester]

IC50: < 10 nM
Molecule: CCCOC(=O)c1cc(Cl)c(OC(=O)CCCc2ccc(NC(=O)c3ccc(C)nc3-c3ccc(C(F)(F)F)cc3)c(C(=O)N(C)C)c2)c(OC)c1 [Compound 1-75, 3-chloro-4-[4-(3-dimethylcarbamoyl-4-{[6-methyl-2-(4-trifluoromethylphenyl)pyridine-3-carbonyl]amino}phenyl)butyryloxy]-5-methoxybenzoic acid propyl ester]

IC50: < 10 nM
Molecule: CC(OC(=O)c1ccc(OC(=O)CCCc2ccc(NC(=O)c3ccccc3-c3ccc(C(F)(F)F)cc3)c(C(=O)N(C)C)c2)cc1)c1ccccc1 (stereo not shown) [Compound 1-106, 4-[4-(3-dimethylcarbamoyl-4-{(4′-trifluoromethylbiphenyl-2-carbonyl)amino}phenyl)butyryloxy]benzoic acid 1-phenylethyl ester]

— patent US8101774B2, “Ester derivatives and medicinal use thereof” (Japan Tobacco Inc., priority 2004, dated 2012)
